Test results: ChEMBL document CHEMBL3593175, “Bicyclic [3.3.0]-Octahydrocyclopenta[c]pyrrolo Antagonists of Retinol Binding Protein 4: Potential Treatment of Atrophic Age-Related Macular Degeneration and Stargardt Disease” (J Med Chem, 2015)

Columns and labels:
[1] = target: T1, Retinol-binding protein 4 (Homo sapiens, UniProt P02753); experiment: Displacement of [3H]-retinol from RBP4 (unknown origin) by scintillation proximity assay
[2] = target: T1, Retinol-binding protein 4; experiment: Inhibition of retinol-induced interaction of bacterially expressed MBP-tagged RBP4 (unknown origin) with Eu3+ cryptate labeled TTR by HTRF assay

IC50 [1] [nM] | IC50 [2] [nM] | Compound
166 | – | O=C(O)c1cncc(N2C[C@H]3C[C@@H](c4ccccc4C(F)(F)F)C[C@H]3C2)n1
12.8 | 81.2 | COc1cc(C(=O)O)nc(N2C[C@H]3C[C@@H](c4ccccc4C(F)(F)F)C[C@H]3C2)n1
68.4 | 2000 | Cc1ccc(C(=O)O)c(N2C[C@H]3C[C@@H](c4ccccc4C(F)(F)F)C[C@H]3C2)n1
